Test results taken from patent US8802597B2, “Herbicidal pyrimidines” (E I du Pont de Nemours and Company, priority 2003, dated 2014).
Like-named read-outs stand apart in the source and are kept apart here.

What was measured:
Assay type in all cases: in vivo
[1] = tested on: duck salad (Heteranthera limosa); experiment: Test B flooded paddy test; settings: Heteranthera limosa, Flood, scale 0 to 100, read-out: Plant response rating, Ducksalad
Summary of the method: (§1)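 Rice, umbrella sedge, duck salad and barnyardgrass grown to 2-leaf stage under flooded paddy conditions and treated with formulated test chemicals. Kept in greenhouse 13–15 days, then visually rated against untreated controls on a 0–100 scale (0 no effect, 100 complete control).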

[2] = tested on: umbrella sedge (Cyperus difformis); experiment: Test B flooded paddy test; settings: Cyperus difformis, Flood, scale 0 to 100, read-out: Plant response rating, Sedge, Umbrella
Summary of the method: as §1

[3] = tested on: barnyardgrass (Echinochloa crus-galli); experiment: Test B flooded paddy test; settings: Echinochloa crus-galli, Flood, scale 0 to 100, read-out: Plant response rating, Barnyardgrass
Summary of the method: as §1

rice (Oryza sativa) = experiment: Test B flooded paddy test; settings: Oryza sativa, Flood, scale 0 to 100, read-out: Plant response rating, Rice
Summary of the method: as §1

corn (Zea mays) = experiment: Test B pre/postemergence; settings: Zea mays
Summary of the method: (§2)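 Visual rating, 0 (no effect) to 100 (complete control) versus controls, taken 13–15 days after treatment in greenhouse. Compounds formulated in non-phytotoxic solvent plus surfactant; pre: sprayed after seeding; post: plants at 1- to 4-leaf stage, 2–18 cm.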

[4] = tested on: giant foxtail (Setaria faberii); experiment: Test B pre/postemergence; settings: Setaria faberi; for pest or weed control at 125 g/ha: 125 g ai/ha; for pest or weed control at 62 g/ha: 62 g ai/ha
Summary of the method: as §2

[5] = tested on: velvetleaf (Abutilon theophrasti); experiment: Test B pre/postemergence; settings: Abutilon theophrasti; for pest or weed control at 62 g/ha: 62 g ai/ha; for pest or weed control at 125 g/ha: 125 g ai/ha
Summary of the method: as §2

[6] = tested on: crabgrass (Digitaria sanguinalis); experiment: Test B pre/postemergence; settings: Digitaria sanguinalis; for pest or weed control at 62 g/ha: 62 g ai/ha; for pest or weed control at 125 g/ha: 125 g ai/ha
Summary of the method: as §2

[7] = tested on: cocklebur (Xanthium strumarium); experiment: Test B pre/postemergence; settings: Xanthium strumarium; for pest or weed control at 62 g/ha: 62 g ai/ha; for pest or weed control at 125 g/ha: 125 g ai/ha
Summary of the method: as §2

[8] = tested on: lambsquarters (Chenopodium album); experiment: Test B pre/postemergence; settings: Chenopodium album, post-emergence, Postemergence, scale 0 to 100 (0 no effect, 100 complete control), read-out: Lambsquarters plant response rating
Summary of the method: as §2

[9] = tested on: pigweed (Amaranthus retroflexus); experiment: Test B pre/postemergence; settings: Amaranthus retroflexus, post-emergence, Postemergence, scale 0 to 100 (0 no effect, 100 complete control), read-out: Pigweed plant response rating
Summary of the method: as §2

[10] = tested on: morningglory (Ipomoea coccinea); experiment: Test B pre/postemergence; settings: Ipomoea; for pest or weed control at 62 g/ha: 62 g ai/ha; for pest or weed control at 125 g/ha: 125 g ai/ha
Summary of the method: as §2

[11] = tested on: wheat (Triticum aestivum); experiment: Test B pre/postemergence; settings: Triticum aestivum, scale 0 to 100 (0 no effect, 100 complete control); for plant injury at 62 g/ha: 62 g ai/ha; for plant injury at 125 g/ha: 125 g ai/ha
Summary of the method: as §2

[12] = tested on: Surinam grass (Brachiaria decumbens); experiment: Test B pre/postemergence; settings: Urochloa decumbens; for pest or weed control at 125 g/ha: 125 g ai/ha; for pest or weed control at 62 g/ha: 62 g ai/ha
Summary of the method: as §2

[13] = tested on: barnyardgrass (Echinochloa crus-galli); experiment: Test B pre/postemergence; settings: Echinochloa crus-galli, post-emergence, Postemergence, scale 0 to 100 (0 no effect, 100 complete control), read-out: Barnyardgrass plant response rating
Summary of the method: as §2

wild oat (Avena fatua) = experiment: Test B postemergence; settings: Avena fatua, post-emergence, scale 0 to 100 (0 no effect, 100 complete control), read-out: Oat, Wild plant response rating
Summary of the method: as §2

[14] = tested on: blackgrass (Alopecurus myosuroides); experiment: Test B postemergence; settings: Alopecurus myosuroides, post-emergence, 62 g ai/ha, scale 0 to 100 (0 no effect, 100 complete control), read-out: Blackgrass plant response rating
Summary of the method: as §2

[15] = post-emergence, Postemergence, scale 0 to 100 (0 no effect, 100 complete control), read-out: Foxtail, Giant plant response rating
[16] = post-emergence, Postemergence, scale 0 to 100 (0 no effect, 100 complete control), read-out: Velvetleaf plant response rating
[17] = post-emergence, Postemergence, scale 0 to 100 (0 no effect, 100 complete control), read-out: Crabgrass plant response rating
[18] = post-emergence, Postemergence, scale 0 to 100 (0 no effect, 100 complete control), read-out: Cocklebur plant response rating
[19] = post-emergence, Postemergence, scale 0 to 100 (0 no effect, 100 complete control), read-out: Morningglory plant response rating
[20] = post-emergence, Postemergence, read-out: Wheat plant response rating
[21] = pre-emergence, Preemergence, read-out: Plant response rating, Wheat
[22] = post-emergence, Postemergence, scale 0 to 100 (0 no effect, 100 complete control), read-out: Surinam Grass plant response rating

Nc1nc(-c2ccc(Br)cc2)nc(C(=O)O)c1Cl [Compound 95, 6-amino-2-(4-bromophenyl)-5-chloro-4-pyrimidinecarboxylic acid]
pest or weed control at 125 g/ha ([1]; 125 g ai/ha): 90% | pest or weed control at 500 g/ha ([1]; 500 g ai/ha): 100% | pest or weed control at 125 g/ha ([2]; 125 g ai/ha): 90% | pest or weed control at 500 g/ha ([2]; 500 g ai/ha): 90% | pest or weed control at 125 g/ha ([3]; 125 g ai/ha): 0% | pest or weed control at 500 g/ha ([3]; 500 g ai/ha): 30% | plant injury at 125 g/ha (rice (Oryza sativa); 125 g ai/ha): 0% | plant injury at 500 g/ha (rice (Oryza sativa); 500 g ai/ha): 40% | plant injury at 62 g/ha (corn (Zea mays); post-emergence, Postemergence, 62 g ai/ha, scale 0 to 100 (0 no effect, 100 complete control), read-out: Corn plant response rating): 80% | plant injury at 125 g/ha (corn (Zea mays); post-emergence, Postemergence, 125 g ai/ha, scale 0 to 100 (0 no effect, 100 complete control), read-out: Corn plant response rating): 90% | Corn plant response rating (crop injury, 0 = no effect, 100 = complete kill) at 62 g/ha (corn (Zea mays); pre-emergence, Preemergence, 62 g ai/ha, scale 0 to 100, 0 no effect, 100 complete control): 40% | Corn plant response rating (crop injury, 0 = no effect, 100 = complete kill) at 125 g/ha (corn (Zea mays); pre-emergence, Preemergence, 125 g ai/ha, scale 0 to 100 (0 no effect, 100 complete control)): 80% | pest or weed control at 125 g/ha [4, 15]: 80% | pest or weed control at 62 g/ha [4, 15]: 80% | pest or weed control at 125 g/ha ([4]; pre-emergence, Preemergence, scale 0 to 100 (0 no effect, 100 complete control), read-out: Plant response rating, Foxtail, Giant): 90% | pest or weed control at 62 g/ha ([4]; pre-emergence, Preemergence, scale 0 to 100, 0 no effect, 100 complete control, read-out: Plant response rating, Foxtail, Giant): 50% | pest or weed control at 62 g/ha [5, 16]: 100% | pest or weed control at 125 g/ha [5, 16]: 100% | pest or weed control at 62 g/ha ([5]; pre-emergence, Preemergence, scale 0 to 100, 0 no effect, 100 complete control, read-out: Plant response rating, Velvetleaf): 80% | pest or weed control at 125 g/ha ([5]; pre-emergence, Preemergence, scale 0 to 100 (0 no effect, 100 complete control), read-out: Plant response rating, Velvetleaf): 100% | pest or weed control at 62 g/ha [6, 17]: 80% | pest or weed control at 125 g/ha [6, 17]: 80% | pest or weed control at 62 g/ha ([6]; pre-emergence, Preemergence, scale 0 to 100, 0 no effect, 100 complete control, read-out: Plant response rating, Crabgrass): 80% | pest or weed control at 125 g/ha ([6]; pre-emergence, Preemergence, scale 0 to 100 (0 no effect, 100 complete control), read-out: Plant response rating, Crabgrass): 100% | pest or weed control at 62 g/ha [7, 18]: 90% | pest or weed control at 125 g/ha [7, 18]: 90% | pest or weed control at 62 g/ha ([7]; pre-emergence, Preemergence, scale 0 to 100, 0 no effect, 100 complete control, read-out: Plant response rating, Cocklebur): 90% | pest or weed control at 125 g/ha ([7]; pre-emergence, Preemergence, scale 0 to 100 (0 no effect, 100 complete control), read-out: Plant response rating, Cocklebur): 100% | pest or weed control at 62 g/ha ([8]; 62 g ai/ha): 100% | pest or weed control at 125 g/ha ([8]; 125 g ai/ha): 100% | pest or weed control at 62 g/ha ([9]; 62 g ai/ha): 100% | pest or weed control at 125 g/ha ([9]; 125 g ai/ha): 100% | pest or weed control at 62 g/ha [10, 19]: 90% | pest or weed control at 125 g/ha [10, 19]: 100% | pest or weed control at 62 g/ha ([10]; pre-emergence, Preemergence, scale 0 to 100, 0 no effect, 100 complete control, read-out: Plant response rating, Morningglory): 30% | pest or weed control at 125 g/ha ([10]; pre-emergence, Preemergence, scale 0 to 100 (0 no effect, 100 complete control), read-out: Plant response rating, Morningglory): 60% | plant injury at 62 g/ha [11, 20]: 40% | plant injury at 125 g/ha [11, 20]: 50% | plant injury at 62 g/ha [11, 21]: 70% | plant injury at 125 g/ha [11, 21]: 80% | pest or weed control at 125 g/ha [12, 22]: 90% | pest or weed control at 62 g/ha [12, 22]: 80% | pest or weed control at 125 g/ha ([12]; pre-emergence, Preemergence, scale 0 to 100 (0 no effect, 100 complete control), read-out: Plant response rating, Surinam Grass): 100% | pest or weed control at 62 g/ha ([12]; pre-emergence, Preemergence, scale 0 to 100, 0 no effect, 100 complete control, read-out: Plant response rating, Surinam Grass): 50% | pest or weed control at 62 g/ha ([13]; 62 g ai/ha): 90% | pest or weed control at 125 g/ha ([13]; 125 g ai/ha): 90% | pest or weed control at 62 g/ha (wild oat (Avena fatua); 62 g ai/ha): 30% | pest or weed control at 125 g/ha (wild oat (Avena fatua); 125 g ai/ha): 60% | pest or weed control at 62 g/ha [14]: 60%
